Measurements published in patent EP0395312B1, “Piperazine derivatives” (JOHN WYETH & BROTHER LIMITED, priority 1989, dated 1990).
Like-named read-outs stand apart in the source and are kept apart here.

Legend:
5-HT1A receptor [1] = biological target: T1, 5-HT1A receptor (Rattus norvegicus, UniProt P19327); experiment: 5-HT1A receptor binding activity in rat hippocampal membrane homogenate
T1 construct: rat hippocampal membrane homogenate; from tissue; host or cells: rat hippocampus membrane homogenate
T1 sequence (P19327 1-422): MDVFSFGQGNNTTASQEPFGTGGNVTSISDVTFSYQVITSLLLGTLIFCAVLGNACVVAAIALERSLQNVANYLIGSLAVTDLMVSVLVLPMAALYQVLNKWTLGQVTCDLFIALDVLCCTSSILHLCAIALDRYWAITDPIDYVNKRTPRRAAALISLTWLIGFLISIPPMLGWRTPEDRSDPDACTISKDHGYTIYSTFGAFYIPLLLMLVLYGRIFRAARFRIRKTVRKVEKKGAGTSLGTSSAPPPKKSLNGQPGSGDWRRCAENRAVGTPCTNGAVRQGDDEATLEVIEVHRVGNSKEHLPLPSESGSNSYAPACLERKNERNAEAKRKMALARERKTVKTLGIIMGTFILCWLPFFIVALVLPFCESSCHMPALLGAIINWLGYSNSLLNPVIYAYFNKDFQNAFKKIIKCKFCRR
Protocol: The compounds of the invention were tested for 5-HT1A receptor binding activity in rat hippocampal membrane homogenate by the method of B S Alexander and M D Wood, J Pharm Pharmarol, 1988, 40, 888-891.

5-HT1A receptor [2] = biological target: T2, 5-HT1A receptor (Cavia porcellus, UniProt A0A286Y074); experiment: 5-HT1A receptor antagonism: antagonism of 5-carboxamidotryptamine in isolated ileum in vitro; set-up: species or system guine-pig; settings: guinea-pig ileum in vitro, read-out: pA2 (converted)
T2 construct: in the guine-pig ileum in in vitro; from tissue; host or cells: guinea-pig isolated ileum
T2 sequence (A0A286Y074 1-421): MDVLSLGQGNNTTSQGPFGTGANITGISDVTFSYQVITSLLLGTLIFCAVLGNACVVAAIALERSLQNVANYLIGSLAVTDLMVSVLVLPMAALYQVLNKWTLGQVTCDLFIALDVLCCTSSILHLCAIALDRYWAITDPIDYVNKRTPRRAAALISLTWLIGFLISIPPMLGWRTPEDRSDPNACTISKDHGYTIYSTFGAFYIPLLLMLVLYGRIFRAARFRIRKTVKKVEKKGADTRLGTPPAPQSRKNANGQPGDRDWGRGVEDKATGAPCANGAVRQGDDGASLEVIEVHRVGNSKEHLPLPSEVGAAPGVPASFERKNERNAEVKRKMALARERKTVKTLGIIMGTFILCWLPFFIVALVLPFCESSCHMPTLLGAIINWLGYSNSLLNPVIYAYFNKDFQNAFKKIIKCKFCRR
Protocol: The compounds are tested for 5-HT1A receptor antagonism activity in a test involving the antagonism of 5-carboxamidotryptamine in the guine-pig ileum in in vitro (based upon the procedure of Fozard et al, Br J Pharmac 1985, 86, 601P).

D2 receptor sites = D2 receptor sites (Homo sapiens, UniProt P14416); experiment: Affinity for D2 receptor sites (procedure of Hancock et al); type: binding; settings: read-out: Affinity for D2 site IC50
Sequence of D2 receptor sites (P14416 whole entry): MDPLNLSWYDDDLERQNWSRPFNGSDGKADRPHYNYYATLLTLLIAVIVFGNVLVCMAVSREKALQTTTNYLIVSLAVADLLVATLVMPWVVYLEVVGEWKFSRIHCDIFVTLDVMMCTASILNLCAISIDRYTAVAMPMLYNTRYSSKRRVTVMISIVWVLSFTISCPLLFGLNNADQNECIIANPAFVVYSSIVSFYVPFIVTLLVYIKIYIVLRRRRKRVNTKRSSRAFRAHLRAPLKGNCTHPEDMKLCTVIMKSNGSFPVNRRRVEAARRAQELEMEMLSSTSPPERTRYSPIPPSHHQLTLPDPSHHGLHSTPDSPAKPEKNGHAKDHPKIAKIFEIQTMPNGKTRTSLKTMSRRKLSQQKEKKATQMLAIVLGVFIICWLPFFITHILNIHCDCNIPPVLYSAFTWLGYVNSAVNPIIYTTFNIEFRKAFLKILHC

α1 sites = experiment: Affinity for α1 sites (procedure of Morrow et al); type: binding; settings: read-out: Affinity for α1 site IC50
[3] = 5-HT1A receptor binding, rat hippocampal membrane homogenate, read-out: IC50

Row | Structure (SMILES) | IC50 (5-HT1A receptor [1]; [3]) [nM] | Kb (5-HT1A receptor [2]) [nM] | IC50 (D2 receptor sites) [nM] | IC50 (α1 sites) [nM] | IC50 (5-HT1A receptor [1]) [nM]
1 | COc1ccccc1N1CCN(CC(C(=O)NC2CCCCC2)c2ccccc2)CC1 (stereo not shown) [Example 19] | 24 | 126 | 6290 |  | 
2 | COc1ccccc1N1CCN(CC(C(=O)NCCN2C(=O)CC3(CCCC3)CC2=O)c2ccccc2)CC1 (stereo not drawn) [Example 21, 8-{α-{1-[4-(2-methoxyphenyl)piperazinyl]methyl}phenylacetamidoethyl}-8-azaspiro[4.5]deca-7,9-dione] | 49 | 126 |  | 1200 | 
3 | COc1ccccc1N1CCN(CC(C(=O)NCc2ccccc2)c2ccccc2)CC1 (stereo not shown) [Example 23, 3-{1-[4-(2-Methoxyphenyl)piperazinyl]}-2-phenyl-N-(phenylmethyl)propanamide] | 59 | 100 |  |  | 
4 | O=C(NC1CCCCC1)C(CN1CCN(c2ncccn2)CC1)c1ccccc1 (stereo not shown) [Example 24, N-Cyclohexyl-2-phenyl-3-{1-[4-(2-pyrimidinyl)piperazinyl]}propanamide] | 75 |  |  | > 10000 | 
5 | CCOC(=O)C(Cc1ccccc1)CN1CCN(c2ccccc2OC)CC1 (stereo not shown) [Example 29, Ethyl 2-{1-[4-(2-methoxyphenyl)piperazinyl]methyl}-3-phenylpropanoate] | 25 |  |  |  | 
6 | COc1ccccc1N1CCN(CC(C(=O)N2CCCC2)c2ccccc2)CC1 (stereo not shown) [Example 32, 1-{3-{1-[4-(2-methoxyphenyl)piperazinyl]}-2-phenylpropionyl}pyrrolidine] | 21 | 158 | > 10000 | 851 | 
7 | COc1ccccc1N1CCN(CC(C(=O)N2CCCCC2)c2ccccc2)CC1 (stereo not shown) [Example 33, 1-{3-{1-[4-(2-methoxyphenyl)piperazinyl]}-2-phenylpropionyl}piperidine] | 8 |  |  |  | 
8 | COc1ccccc1N1CCN(CC(C(=O)N2CCCCCC2)c2ccccc2)CC1 (stereo not shown) [Example 34, 2,3,4,5,6,7-hexahydro-1-{3-{1-[4-(2-methoxyphenyl)piperazinyl]}-2-phenylpropionyl}-1H-azepine] |  |  |  |  | 9
9 | COc1ccccc1N1CCN(CC(C(=O)NC2CCCCCCC2)c2ccccc2)CC1 (stereo not shown) [Example 35] | 16.5 |  |  |  | 
10 | COc1ccccc1N1CCN(C[C@@H](NC(=O)C2CCCCC2)c2ccccc2)CC1 [Example 37, (S)-N-[2-[1-[4-(2-Methoxyphenyl)piperazinyl]]-1-phenylethyl]cyclohexanecarboxylic acid amide] | 45 | 25.1 |  | 7310 | 
11 | COc1ccccc1N1CCN(CC(OC(=O)Nc2ccccc2)c2ccccc2)CC1 (stereo not shown) [Example 39, O-[2-[1-[4-(2-Methoxyphenyl)piperazinyl]]-1-phenylethyl]-N-phenylcarbamate] | 22 |  |  |  | 
12 | COc1ccccc1N1CCN(CC(OC(=O)C2CCCCC2)c2ccccc2)CC1 (stereo not shown) [Example 40, 2-{1-[4-(2-Methoxyphenyl)piperazinyl]}-1-phenylethyl cyclohexanecarboxylate] | 78 |  |  |  | 

Now from value to compound, other results behind:

Row | IC50 (5-HT1A receptor [1]; [3]) [nM] | Kb (5-HT1A receptor [2]) [nM] | IC50 (D2 receptor sites) [nM] | IC50 (α1 sites) [nM] | Structure (SMILES) | IC50 (5-HT1A receptor [1]) [nM]
13 | 127 |  |  |  | COc1ccccc1N1CCN(CC(C(=O)Nc2ccccc2)c2ccccc2)CC1 (stereo not shown) [Example 6, 3-{1-[4-(2-Methoxyphenyl)piperazinyl]}-2-phenyl-N-phenylpropanamide] | 
14 | 45 |  |  |  | CNC(=O)C(CN1CCN(c2ccccc2OC)CC1)c1ccccc1 (stereo not shown) [Example 8, methylamide] | 
15 | 45 |  |  | 1230 | COc1ccccc1N1CCN(CC(C(=O)N(C)C)c2ccccc2)CC1 (stereo not shown) [Example 22, N,N-Dimethyl-3-{1-[4-(2-methoxyphenyl)piperazinyl]}-2-phenylpropanamide] | 
16 | 46 | 158 |  | 1090 | COc1ccccc1N1CCN(CC(C(=O)OCC(C)C)c2ccccc2)CC1 (stereo not shown) [Example 26, 2-Methylpropyl 3-{1-[4-(2-methoxyphenyl)piperazinyl]}-2-phenylpropanoate] | 
17 | 28 | 39.8 |  |  | COc1ccccc1N1CCN(CC(C(=O)NC2CC2)c2ccccc2)CC1 (stereo not shown) [Example 31, cyclopropyl-amide] | 
18 | 88 |  |  | 2850 | CCOC(=O)N[C@H](CN1CCN(c2ccccc2OC)CC1)c1ccccc1 [Example 41, Ethyl(S)-N-[2-[1-[4-(2-methoxyphenyl)piperazinyl]]-1-phenylethyl]carbamate] | 
19 | 37 | 126 |  | 988 | COC(=O)C(CN1CCN(c2ccccc2OC)CC1)c1ccccc1 (stereo not shown) [Example 42, Methyl 3-[1-[4-(2-methoxyphenyl)piperazinyl]]-2-phenylpropionate] | 
